Source: US20100168112A1, “2-Substituted and 4-substituted aryl nitrone compounds” (RENOVIS, INC., priority 2004, published 2010)
Where two headings read alike, the source gives them in different places.

How the values were obtained:
[1] = Solubility measurement at pH 7.4; assay type: physicochemical; settings: aqueous buffer, thermodynamic from solid, phosphate buffer pH 7.4, room temperature
Method: Nitrone compounds (>3 mg) of this invention were mixed with a phosphate buffer at pH 7.4 to make a >0.3 mg/mL mixture. The mixture was vortexed for more than 2 hours and equilibrated over 12 hours at room temperature. The equilibrated mixture was used to saturate a 0.45 μm Tuffryn syringe filter. After saturating, the remainder of the mixture was filtered through the saturated filter. The filtrate was diluted by 1, 10, 100, and 1000 fold and analyzed using a LC/MS/MS method with standard curve ranging from 1 to 1000 ng/mL.

[2] = DPPH free radical-scavenging/antioxidant assay; assay type: biochemical; settings: 50 μM DPPH in 80% methanol; 24 h time point; read-out: EC50 (concentration at which a compound reduces by 50% the peak absorbance of DPPH at 520 nm)
Method: Nitrone compounds of the present invention were tested for their free-radical scavenging/antioxidant activity in an in vitro assay that is accepted by those skilled in the art as a model for conditions involving the generation of free radicals. The assay is based on a reaction between a free-radical donor, 2,2-diphenyl-1-picrylhydrazyl (DPPH), and a radical scavenger/antioxidant to be tested for free-radical scavenging activity. Upon donation of the free-radical electron to the purported radical scavenger, the peak visible absorbance of DPPH (515-520 nm) decreases so that optical density readings at this part of the visual spectrum reflect the progression of the following reaction:
where AH is a hypothetical radical scavenger/antioxidant. The assay is based on a protocol originally detailed in Brand-Williams, W. et al., 1995, Use of a Free Radical Method to Evaluate Antioxidant Activity, Lebensm. Wiss. Technol., 28:25-30, with further modifications described in L. R. Fukumoto and G. Mazza, 2000, Assessing Antioxidant and Prooxidant Activities of Phenolic Compounds, J. Agric. Food Chem., 48:3597-3604.
The antioxidant assay was performed using Perkin-Elmer 96-well, clear-bottom, black-wall plates (ordered from E & K Scientific Products) and a Tecan Safire absorbance plate reader. The positive controls were Trolox (6-hydroxy-2,5,7,8-tetramethylchromane-2-carboxylic acid, Sigma-Aldrich), BHA (2(3)-tert-butylhydroquinone monomethyl ether, Sigma-Aldrich), PBN (C-(phenyl)-N-(tert-butyl)nitrone, Sigma-Aldrich) and S-PBN (C-(2-sulfophenyl)-N-(tert-butyl)nitrone, sodium salt, prepared according to E. G. Janzen and R. V. Shetty, 1979, Tetrahedron Lett., 35: 3229-32), and the negative control (i.e., vehicle) was DMSO. In brief, 2 μL of 100× DMSO stock of the desired final concentration of each control or nitrone compound to be tested in the same batch was added to a separate well. To each well was then added 198 μL of a freshly made 50 μM DPPH (Sigma-Aldrich) solution in 80% methanol using a multi-channel pipette. The absorbance was immediately read on the plate reader at 520 nm and thereafter read periodically to assess kinetics until all reactions reached completion (i.e., steady state). Since the steady-state point was 24 h, the assay results are shown from the 24 h time point. The absorbance at 520 nm (OD) was plotted versus the concentrations of the controls and nitrone compounds to assess dose-response and interpolate the EC50 values of the controls and test compounds.

[3] = Microsomal stability in human liver microsomes; assay type: in vitro ADME; settings: NADPH, 37° C.
Method: Frozen Sprague-Dawley rat liver microsomes (RLM) were thawed on ice and gently mixed before use. The final reaction mixture consisted of a nitrone compound of this invention (at ˜500 ng/ml), 1 mM NADPH, and 0.5 mg/ml of RLM protein in 0.1 M PBS (pH7.4), with organic solvent concentration not exceeding 1% (v/v). Per set of incubations, a positive control compound was included. The mixture was first pre-incubated 3 to 5 minutes at 37° C. without NADPH, and the reaction was then initialized by the addition of NADPH and incubated at 37° C. for up to 30 minutes. An aliquot of the reaction mixture was sampled at the initiation of the reaction and at designated time after reaction started. The drawn samples were quenched with acetonitrile, diluted with mobile phase to ensure the detection of test article in the linear range, and analyzed by LC/MS/MS. Half-life or percentage of remaining nitrone compound was calculated using standard methods. A similar method, or a slight variation of it, was used to test the stability of nitrones in human liver microsomes (HLM).

[4] = Pharmacokinetic evaluation following intravenous and oral administration in rats; assay type: in vivo; settings: male, Sprague-Dawley; for Cmax / Tmax / bioavailability: 5 mg/kg; for Cmax: rat plasma; for Cmax / Tmax: oral gavage, 2 mg/mL at 2.5 mL/kg; for clearance / Vd / Tmax / bioavailability / half-life: plasma, rat; for clearance / Vd / half-life: 1 mg/kg; for clearance / Vd: intravenous administration, 1 mg/mL at 1.0 mL/kg; for clearance: read-out: CI (clearance) (converted); for Vd: read-out: Vd (volume of distribution); for bioavailability: po 2 mg/mL at 2.5 mL/kg vs iv 1 mg/mL at 1.0 mL/kg, dose-normalized, read-out: F (%) oral bioavailability; for half-life: intravenous, read-out: T1/2 elimination half life (converted)
Method: Male Sprague-Dawley rats were given at least 24 hours acclimation before experiment initiation. During acclimation period, all animals received food and water ad libitum. However, food (not water) was removed from the animal's cages up to 12 hours before initiation of the experiment. During the first 4 hours of experimentation, the animals received only water ad libitum. Two to three animals for iv and three animals for oral administration were tested. For iv formulation nitrone compounds of this invention were dissolved (1 mg/mL) in a mixture of 5% dimethyl acetamide (v/v), 0 to 4% Tween 80 (v/v), 10 to 40% PEG 400 (v/v) and the rest percentage of water (v/v). For oral formulation nitrone compounds of this invention were dissolved (2 mg/mL) in a mixture of 4% of 10% Tween in water and 96% of 0.5% carboxymethyl cellulose (medium viscosity) in water; or 4% of 10% Tween in water, 48% of 0.5% carboxymethyl cellulose (medium viscosity) in water, and 48% of 0.5% Hydroxypropyl Methylcellulose/0.2% Sodium Lauryl Sulfate in water. These formulations were stored at 5° C. until the experiment. Formulations were then stir-mixed at least half an hour before dosing. Exactly 200 μL of each left-over formulation was diluted with CH3CN/H2O for concentration analysis. The animals were weighed before dosing. The body weight was used to calculate the true dose for each animal:
IV dosing: • Dose volume (mL)=1.0 mL/kg The intravenous dose was administered through the jugular vein catheter or tail vein in less than 1 minute.
PO dosing: • Dose volume (mL)=2.5 mL/kg The oral dose was administered by oral gavage.
For IV dosing, blood samples were collected (using a pre-heparinized syringe) via the carotid artery or jugular vein catheter at t=2, 5, 15, 30, 60, 120, 180, 360, and 480 minutes post dosing. For PO dosing, blood samples were collected (using a pre-heparinized syringe) via the carotid artery or jugular vein catheter before dosing and at t=5, 15, 30, 60, 120, 180, 360, and 480 minutes post dosing. For some nitrone compounds a 1440 minutes (24 hours) sample was also taken for both IV and PO administrations. About 250 μL of blood was obtained at each time point from the animals. Equal volumes of 0.9% normal saline were replaced to prevent dehydration. The whole blood samples were maintained on ice until centrifugation. Blood samples were then centrifuged at 14,000 rpm for 10 minutes at 4° C. and the upper plasma layer transferred into a clean vial and stored at −80° C. The resulting plasma samples were then analyzed by mass spectroscopy using standard methods.
All the samples from above assays were analyzed on a PE-Sciex API 3000 triple quadrupole with a Turbo Ion Spray source. Nitrone compounds of this invention were separated from the matrix via a linear gradient reverse-phase chromatography using a C18 column, such as Thermo BDS Hypersil C18 (100×4.6 mm, 5 micron particle, 120A pore size). The mobile Phases were:
Nitrone compounds were detected by the mass spectrometer in the positive ion multiple reaction monitoring mode (MRM). For quantitative analysis, a standard curve was prepared by spiking a stock solution of the nitrone compound to the appropriate matrix to achieve a quantitation curve range and analyzed the standards in the same manner as the samples.
Pharmacokinetic parameters of the aryl nitrone compounds were determined by a noncompartmental analysis using WinNonlin-Pro (Version 4.1, Pharsight Corporation). Average and standard deviation of the parameters were calculated using standard formulas in Microsoft Excel.

[5] = read-out: Solubility @ pH 7.4 (μg/mL)

Row | solubility ([1]; read-out: Solubility @ pH 7.4) | solubility [1, 5] | EC50 [2] | % of Nitrone Remaining at 30 min (Human) [3] | Cmax [4] | clearance [4] | Vd [4] | Tmax [4] | bioavailability [4] | half-life [4] | SMILES
1 | > 4070 µM | > 1150 µg/mL | > 1000 µM | 90.5% |  |  |  |  |  |  | CS(=O)(=O)c1ncccc1/C=[N+](\[O-])C1CCCCC1 [Compound 76, N-Cyclohexyl-C-(2-methanesulfonyl-pyridine-3-yl)nitrone]
2 | 96 µM | 29.4 µg/mL | > 1000 µM | 75.7% | 12 ng/mL | 376 mL/min/kg | 10.7 L/kg | 11.4 min | 9.4% | 19.2 min | CC(C)(C)/[N+]([O-])=C/c1cc2ccccc2nc1S(C)(=O)=O [Compound 74, N-tert-Butyl-C-(2-methanesulfonyl-quinoline-3-yl)nitrone]
3 | > 11300 µM | > 2900 µg/mL | > 1000 µM | 100% | 4170 ng/mL | 3.33 mL/min/kg | 0.8 L/kg | 85.2 min | 72.2% | 166 min | CC(C)(C)/[N+]([O-])=C/c1cccnc1S(C)(=O)=O [Compound 73, N-tert-Butyl-C-(2-methanesulfonyl-pyridine-3-yl)nitrone]
4 | 2920 µM | 848 µg/mL | > 1000 µM | 95.1% | 1030 ng/mL | 21.8 mL/min/kg | 1.07 L/kg | 11.4 min | 50.2% | 34.2 min | CS(=O)(=O)c1ncccc1/C=[N+](\[O-])Cc1ccccc1 [Compound 75, N-Benzyl-C-(2-methanesulfonyl-pyridine-3-yl)nitrone]
5 | 3.5 µM | 1.42 µg/mL | > 1000 µM | 0% |  |  |  |  |  |  | O=S(=O)(c1ccccc1/C=[N+](\[O-])C1CCCCC1)N1CCCc2ccccc21 [Compound 45, N-Cyclohexyl-C-[2-(3,4-dihydro-2H-quinoline-1-sulfonyl)phenyl]nitrone]
6 | 5.26 µM | 2.14 µg/mL | > 1000 µM | 0% |  |  |  |  |  |  | O=S(=O)(c1ccccc1/C=[N+](\[O-])Cc1ccccc1)N1CCCc2ccccc21 [Compound 46, N-Benzyl-C-[2-(3,4-dihydro-2H-quinoline-1-sulfonyl)phenyl]nitrone]

Second part, the compound before the results:

Row | SMILES | solubility ([1]; read-out: Solubility @ pH 7.4) | solubility [1, 5] | EC50 [2] | % of Nitrone Remaining at 30 min (Human) [3] | Cmax [4] | clearance [4] | Vd [4] | Tmax [4] | bioavailability [4] | half-life [4]
7 | CN1CCN(S(=O)(=O)c2ccccc2/C=[N+](\[O-])C(C)(C)C)CC1 [Compound 38, N-tert-Butyl-C-[2-(4-methyl-piperazine-1-sulfonyl)phenyl]nitrone] | > 1860 µM | > 632 µg/mL | > 1000 µM | 76.6% |  |  |  |  |  | 
8 | O=S(=O)(c1ccccc1/C=[N+](\[O-])Cc1ccccc1)N1CCOCC1 [Compound 37] | 5020 µM | 1810 µg/mL | 100 to 500 µM | 65.4% |  |  |  |  |  | 
9 | CC(C)(C)/[N+]([O-])=C/c1ccccc1S(=O)(=O)N1CCCc2ccccc21 [Compound 44, N-tert-Butyl-C-[2-(3,4-dihydro-2H-quinoline-1-sulfonyl)phenyl]nitrone] | 156 µM | 58.1 µg/mL | > 1000 µM | 0% |  |  |  |  |  | 
10 | CN1CCN(S(=O)(=O)c2ccccc2/C=[N+](\[O-])Cc2ccccc2)CC1 [Compound 40, N-Benzyl-C-[2-(4-methyl-piperazine-1-sulfonyl)phenyl]nitrone] | > 2280 µM | > 851 µg/mL | > 1000 µM | 27.9% |  |  |  |  |  | 
11 | O=S(=O)(c1ccccc1/C=[N+](\[O-])C1CCCCC1)N1CCOCC1 [Compound 36] | 584 µM | 206 µg/mL | > 1000 µM | 24.2% |  |  |  |  |  | 
12 | CN(c1ccccc1)S(=O)(=O)c1ccccc1/C=[N+](\[O-])C(C)(C)C [Compound 41] | 413 µM | 143 µg/mL | > 1000 µM | 0% |  |  |  |  |  | 
13 | CN1CCN(S(=O)(=O)c2ccccc2/C=[N+](\[O-])C2CCCCC2)CC1 [Compound 39, N-Cyclohexyl-C-[2-(4-methyl-piperazine-1-sulfonyl)phenyl]nitrone] | > 2630 µM | > 962 µg/mL | > 1000 µM | 41.9% |  |  |  |  |  | 
